Laboratory results as given in US20200002382A1, “Method for manufacturing oxytocin by liquid-phase polypeptide synthesis” (LANZHOU KAIBO PHARMACEUTICAL CO., LTD., priority 2017, published 2020).
Where two headings read alike, the source gives them in different places.

How the values were obtained:
[1] = Biological value of the pure oxytocin product by the content determination method of the European Pharmacopoeia; conditions: pure oxytocin from the liquid-phase synthesis; European Pharmacopoeia (version 8.0) content determination method, European Pharmacopoeia standards as standard materials; water and acetic acid removed
Description: In order to solve the problems existing in the present oxytocin synthesis technology, the invention provides a liquid-phase synthesis technique of oxytocin characterized by high productivity, low cost, safe environment, mild reaction conditions, high level of purity and biological value and great possibility for industrial production. The pure product of oxytocin provided by the invention has a content of 98.1% and a biological value of 588 IU/mg measured by the content determination method according to the European Pharmacopoeia (version 8.0).
Liquid contained oxytocin with purity above 99% is collected, concentrated at 25° C., desalted by PS polymer, concentrated, and freeze-dried to obtain the pure product of oxytocin (the HPLC image is shown in the attached drawings). The pure product of oxytocin provided by the invention has a content of 98.1% and a biological value of 588 IU/mg measured by the content determination method according to the European Pharmacopoeia, with the European Pharmacopoeia standards used as the standard materials. […]

[2] = Photaki synthesis: 1,2-diiodoethane disulfide formation, HBr/AcOH deprotection, purified product; cited from earlier work

What does the source list for `CC[C@H](C)[C@@H]1NC(=O)[C@H](Cc2ccc(O)cc2)NC(=O)[C@@H](N)CSSC[C@@H](C(=O)N2CCC[C@H]2C(=O)N[C@@H](CC(C)C)C(=O)NCC(N)=O)NC(=O)[C@H](CC(N)=O)NC(=O)[C@H](CCC(N)=O)NC1=O` [oxytocin, Oxytocin]?
biological value [1]: 588 IU/mg; biological value [2]: 380 IU/mg
